Measured values reported in PubChem BioAssay AID493092 (Sanford-Burnham Center for Chemical Genomics, 2011).
Activity calls are given as the source filed them.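 How the source made its calls: active means averaged IC50 for reducing per-cell lipid droplet stain intensity under a set limit; inactive means the rest.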

System: AML12 mouse hepatocytes, BODIPY lipid droplet imaging
Assay: lipid droplet accumulation inhibition in liver cells – imaging, AML12 mouse hepatocytes, BODIPY staining, SAR follow-up (AID 493092)
Details: cells fed 100 µM oleate overnight

SMILES | IC50
CC(OC(=O)c1ccc(S(=O)(=O)C(F)F)cc1)C(=O)Nc1nc(-c2ccccc2)cs1 (configuration not stated) | > 32 µM (inactive)
CC(OC(=O)c1ccc2c(c1)OCO2)C(=O)Nc1nc(-c2cccc([N+](=O)[O-])c2)cs1 (configuration not stated) | > 32 µM (inactive)
CCOc1ccc(CCNC(=O)COC(=O)c2cc(OC)c(OC)c(OC)c2)cc1OCC | 0.103 µM
CCOc1ccc(C(=O)OCC(=O)Nc2nc(OC)cc(OC)n2)cc1OCC | 0.591 µM
CC1CCCN(C(=O)c2ccc3c(c2NCCO)C(=O)c2ccccc2C3=O)C1 (configuration not stated) | 2.25 µM
COc1ccccc1NC(=O)C1CCN(C(=O)NCc2ccccc2)CC1 | 3.23 µM
CC(OC(=O)c1cccc([N+](=O)[O-])c1)C(=O)Nc1nc(-c2ccccc2)cs1 (configuration not stated) | > 32 µM (inactive)
CCOc1ccc(CCNC(=O)Cn2cccc2C(=O)c2ccccc2C)cc1OCC | 0.33 µM
CCOc1ccc(CCNC(=O)Nc2ccccc2C)cc1OCC | 0.826 µM
CCOc1ccc(CCNC(=O)c2cc3sc(Cl)cc3n2C)cc1OCC | 0.0922 µM
COc1ccc(C)cc1CN(C)C(=O)C(C)NC(=O)Cc1cccc2ccccc12 (configuration not stated) | 1.05 µM
COc1ccc(C(=O)OC(C)C(=O)Nc2cc(C(F)(F)F)ccc2Cl)c(OC)c1OC (configuration not stated) | 0.439 µM
COc1cc(OC)cc(C(=O)NCC(=O)NC(C)CCc2ccccc2)c1 (configuration not stated) | > 32 µM (inactive)
CCOc1ccc(CN(C)C(=O)CNC(=O)c2ccc(Br)o2)cc1OC | 1.83 µM
O=C(Nc1nc(-c2ccc(-c3ccccc3)cc2)cs1)C1CCCO1 (configuration not stated) | 1.1 µM
CCOc1ccc(CCNC(=O)C2CC=CCC2C(=O)OC(C)C)cc1OCC (configuration not stated) | 0.267 µM
Cc1cc(N2CCOCC2)n2nc(C)c(-c3ccccc3)c2n1 | 0.217 µM
CCCc1cc(N2CCCC2)n2nc(C)c(-c3ccccc3)c2n1 | 0.7 µM
COc1ccc(-c2csc(NC(=O)c3ccc(OCC(=O)N4CCOCC4)c(OC)c3)n2)cc1OC | 1.02 µM

SMILES | IC50
COc1ccc(Br)cc1CN(C)C(=O)CNC(=O)Cc1cccc2ccccc12 | 2.08 µM
CCOc1ccc(CCNC(=O)c2cc(-c3ccccc3)c(N3CCOCC3)s2)cc1OCC | < 0.0625 µM
Cc1cc(C(=O)OC(C)C(=O)Nc2nc(-c3ccccc3)cs2)c(C)o1 (configuration not stated) | 0.428 µM
COc1ccc(C(=O)OC(C)C(=O)NC(C)CCc2ccccc2)cc1[N+](=O)[O-] (configuration not stated) | 0.261 µM
CN(Cc1ccc2c(c1)OCO2)C(=O)CNC(=O)Cc1cccc2ccccc12 | > 32 µM (inactive)
Cc1sc(NC(=O)Cc2ccc3c(c2)OCO3)nc1-c1ccc2c(c1)CCN2C(=O)c1ccccc1F | > 32 µM (inactive)
Cc1cc(N2CCOCC2)n2nc(C(F)(F)F)c(-c3ccc(Cl)cc3)c2n1 | 0.113 µM
CC(=O)Nc1ccc(-c2csc(NC(=O)Cc3cccc(F)c3)n2)cc1 | 2.71 µM
CCOc1ccc(CCNC(=O)CCC(=O)N2CCOc3ccc(C)cc32)cc1OCC | 0.298 µM
CCOc1ccc(CCNC(=O)CCC(=O)N2CCOc3ccccc32)cc1OCC | 0.161 µM
COc1cc2c(cc1OC)CN(C(=O)CNC(=O)Cc1cccc3ccccc13)CC2 | 0.469 µM
Cc1ccc(C(=O)OC(C)C(=O)Nc2nc(-c3cccc([N+](=O)[O-])c3)cs2)cc1 (configuration not stated) | 17 µM (inactive)
Cc1cc(N2CCOCC2)n2nc(C)c(-c3ccc(Cl)cc3)c2n1 | 0.158 µM
O=C(CSCC(=O)N1CCCc2ccccc21)Nc1nc(-c2ccccc2)cs1 | 11.8 µM (inactive)
COc1ccc(CCNC(=O)Nc2ccccc2Cl)cc1OC | > 32 µM (inactive)
CCOc1ccccc1NC(=O)CCCNC(=O)Cn1cnc2sc(C)c(C)c2c1=O | 8.67 µM (inactive)
CCOc1ccc(CCNC(=O)c2nnc(Cc3ccc(F)cc3)o2)cc1OCC | 0.543 µM
Cc1ccc(C(=O)NCC(=O)NCCCc2ccccc2)cc1 | > 32 µM (inactive)
